Values quoted from earlier work in patent US5679660A, “Pharmaceutical composition comprising diclofenac and cyclodextrin” (Farmarc Nederland BV, priority 1993, dated 1997).

Conditions: literature, Backensfeld and Mueller 1990

effect on aqueous solubility of diclofenac: increase the aqueous solubility
Compound: OC[C@H]1O[C@@H]2O[C@H]3[C@H](O)[C@@H](O)[C@@H](O[C@H]4[C@H](O)[C@@H](O)[C@@H](O[C@H]5[C@H](O)[C@@H](O)[C@@H](O[C@H]6[C@H](O)[C@@H](O)[C@@H](O[C@H]7[C@H](O)[C@@H](O)[C@@H](O[C@H]8[C@H](O)[C@@H](O)[C@@H](O[C@H]1[C@H](O)[C@H]2O)O[C@@H]8CO)O[C@@H]7CO)O[C@@H]6CO)O[C@@H]5CO)O[C@@H]4CO)O[C@@H]3CO [Beta-cyclodextrin]
